Measured values from patent US20070128217A1 (priority 2003, published 2007).

Legend:
[1] = tested on: antibodies in sera from SARS patients (sera 1a, 1b, 2, 6, 37, 62, London, SARS-yellow, SARS-green); type: binding, human; set-up: Binding of serum 6 to linear peptides of protein X1 of SARS-CoV Urbani / Binding of serum 37 to linear peptides of protein X1 of SARS-CoV Urbani / Binding of serum 6 to looped/cyclic peptide (PEPSCAN-ELISA) / Binding of serum 37 to looped/cyclic peptide (PEPSCAN-ELISA) / Binding of serum 37 to looped/cyclic peptides of protein X1 of SARS-CoV Urbani / Binding of serum 6 to linear peptides of protein X2 / Binding of serum 37 to linear peptides of protein X2 / Binding of serum 37 to looped/cyclic peptides of protein X2 of SARS-CoV Urbani / Binding of serum 6 to linear peptides of protein M of SARS-CoV Urbani / Binding of serum 37 to linear peptides of protein M of SARS-CoV Urbani / Binding of serum 6 to looped/cyclic peptides of protein M of SARS-CoV Urbani / Binding of serum 37 to looped/cyclic peptides of protein M of SARS-CoV Urbani / Binding of serum 6 to linear peptides of protein X3 of SARS-CoV Urbani / Binding of serum 37 to linear peptides of protein X3 of SARS-CoV Urbani / Binding of serum 37 to looped/cyclic peptides of protein X3 of SARS-CoV Urbani / Binding of serum 6 to linear peptides of protein X4 of SARS-CoV Urbani / Binding of serum 37 to linear peptides of protein X4 of SARS-CoV Urbani / Binding of serum 37 to looped/cyclic peptides of protein X4 of SARS-CoV Urbani / Binding of serum 6 to linear peptides of protein X5 of SARS-CoV Urbani / Binding of serum 37 to linear peptides of protein X5 of SARS-CoV Urbani / Binding of serum 37 to looped/cyclic peptides of protein X5 of SARS-CoV Urbani / Binding of serum 6 to linear peptides of protein N of SARS-CoV Urbani / Binding of serum 37 to linear peptides of protein N of SARS-CoV Urbani / Binding of serum 6 to linear peptide (PEPSCAN-ELISA) / Binding of serum 1a to looped/cyclic peptides of protein N of SARS-CoV Urbani / Binding of serum 1b to looped/cyclic peptides of protein N of SARS-CoV Urbani / Binding of serum 2 to looped/cyclic peptides of protein N of SARS-CoV Urbani / Binding of serum 6 to looped/cyclic peptides of protein N of SARS-CoV Urbani / Binding of serum 37 to looped/cyclic peptides of protein N of SARS-CoV Urbani / Binding of serum 62 to looped/cyclic peptides of protein N of SARS-CoV Urbani / Binding of serum London to looped/cyclic peptides of protein N of SARS-CoV Urbani / Binding of serum SARS-green to looped/cyclic peptides of protein N of SARS-CoV Urbani: unit not given here
[2] = tested on: control sera (pooled serum of ten healthy LUMC hospital workers; commercial negative donor pooled serum from the Dutch bloodbank); type: binding, human; set-up: Binding of Control serum LUMC to linear peptides / Binding of Control serum Blood-bank to linear peptides / Binding of Control serum LUMC to looped peptides / Binding of Control Serum Blood-Bank to Looped peptides / Binding of Control serum LUMC to linear peptides of the protein M of SARS-CoV Urbani / Binding of Control serum Blood-bank to linear peptides of the protein M of SARS-CoV Urbani / Binding of Control serum LUMC to looped peptides of the protein M of SARS-CoV Urbani / Binding of Control Serum Blood-Bank to Looped peptides of the protein M of SARS-CoV Urbani: unit not given here
[3] = tested on: rabbit serum obtained by immunizing a rabbit with the SARS-CoV strain Frankfurt 1; type: binding; set-up: Binding of a rabbit serum to linear peptides / Binding of a rabbit serum to looped peptides / Rabbit serum linear peptides / Rabbit serum looped peptides / Binding of a rabbit serum to linear peptides of protein N of SARS-CoV Urbani (Rabbit serum linear peptides) / Binding of a rabbit serum to looped/cyclic peptides of protein N of SARS-CoV Urbani (Rabbit serum looped peptides): unit not given here
[4] = tested on: recombinant human anti-SARS-CoV antibody 03-018; type: binding; set-up: Binding of antibody 03-018 to linear peptides of the N protein of SARS-CoV Urbani / Binding of antibody 03-018 to looped/cyclic peptides of the N protein of SARS-CoV Urbani: unit not given here

Sequence	Binding of serum 1a to linear peptides of protein N of SARS-CoV Urbani [1]	Binding of serum 1a to looped/cyclic peptides of protein N of SARS-CoV Urbani [1]	Binding of serum 1b to linear peptides of protein N of SARS-CoV Urbani [1]	Binding of serum 1b to looped/cyclic peptides of protein N of SARS-CoV Urbani [1]	Binding of serum 2 to linear peptides of protein N of SARS-CoV Urbani [1]	Binding of serum 2 to looped/cyclic peptides of protein N of SARS-CoV Urbani [1]	Binding of serum 6 to linear peptides of protein N of SARS-CoV Urbani [1]	Binding of serum 6 to looped/cyclic peptides of protein N of SARS-CoV Urbani [1]	Binding of serum 37 to linear peptides of protein N of SARS-CoV Urbani [1]	Binding of serum 37 to looped/cyclic peptides of protein N of SARS-CoV Urbani [1]	Binding of serum 62 to linear peptides of protein N of SARS-CoV Urbani [1]	Binding of serum 62 to looped/cyclic peptides of protein N of SARS-CoV Urbani [1]	Binding of serum London to linear peptides of protein N of SARS-CoV Urbani [1]	Binding of serum London to looped/cyclic peptides of protein N of SARS-CoV Urbani [1]	Binding of serum SARS-green to linear peptides of protein N of SARS-CoV Urbani [1]	Binding of serum SARS-green to looped/cyclic peptides of protein N of SARS-CoV Urbani [1]	Binding of serum SARS-yellow to linear peptides of protein N of SARS-CoV Urbani [1]	Binding of serum SARS-yellow to looped/cyclic peptides of protein N of SARS-CoV Urbani [1]	Binding of a rabbit serum to linear peptides of protein N of SARS-CoV Urbani (Rabbit serum linear peptides) [3]	Binding of a rabbit serum to looped/cyclic peptides of protein N of SARS-CoV Urbani (Rabbit serum looped peptides) [3]	also measured
RWYFYYLGTGPEASL	0.3	0.4	0.2	0.4	0.2	0.5	0.2	0.3	0.8	1.1	0.8	0.9	0.4	0.5	0.3	0.8	0.6	0.7	0.2	0.6	Binding of Control Serum Blood-Bank to Looped peptides [2]: 0.7; Binding of Control serum Blood-bank to linear peptides [2]: 0.6; Binding of Control serum LUMC to linear peptides [2]: 0.7; Binding of Control serum LUMC to looped peptides [2]: 0.8; Binding of antibody 03-018 to linear peptides of the N protein of SARS-CoV Urbani [4]: 0.1; Binding of antibody 03-018 to looped/cyclic peptides of the N protein of SARS-CoV Urbani [4]: 0.2
TPKDHIGTRNPNNNA	0.3	0.3	0.1	0.3	0.3	0.3	0.2	0.2	0.9	0.5	0.8	0.3	0.5	0.3	0.4	0.3	0.7	0.3	0.1	0.4	Binding of Control Serum Blood-Bank to Looped peptides [2]: 0.5; Binding of Control serum Blood-bank to linear peptides [2]: 0.9; Binding of Control serum LUMC to linear peptides [2]: 0.9; Binding of Control serum LUMC to looped peptides [2]: 0.6; Binding of antibody 03-018 to linear peptides of the N protein of SARS-CoV Urbani [4]: 0.1; Binding of antibody 03-018 to looped/cyclic peptides of the N protein of SARS-CoV Urbani [4]: 0.2
IGMEVTPSGTWLTYH	0.2	0.5	0.1	0.3	0.1	0.5	0.2	0.3	0.6	0.8	0.6	1.0	0.5	0.6	0.3	0.7	0.5	0.5	0.1	0.6	Control Serum Blood-Bank Looped peptides [2]: 0.8; Control serum Blood-bank linear peptides [2]: 0.8; Control serum LUMC linear peptides [2]: 0.6; Control serum LUMC looped peptides [2]: 0.8; Binding of antibody 03-018 to linear peptides of the N protein of SARS-CoV Urbani [4]: 0.1; Binding of antibody 03-018 to looped/cyclic peptides of the N protein of SARS-CoV Urbani [4]: 0.2
EAQPLPQRQKKQPTV	0.2	0.2	0.2	0.1	0.3	0.2	0.3	0.2	0.7	0.3	0.7	0.2	1.2	0.3	0.4	0.2	1.3	0.5	0.1	0.0	Control Serum Blood-Bank Looped peptides [2]: 0.4; Control serum Blood-bank linear peptides [2]: 0.6; Control serum LUMC linear peptides [2]: 0.7; Control serum LUMC looped peptides [2]: 0.4; Binding of antibody 03-018 to linear peptides of the N protein of SARS-CoV Urbani [4]: 0.1; Binding of antibody 03-018 to looped/cyclic peptides of the N protein of SARS-CoV Urbani [4]: 0.2
